Holding throughout (test): NCI tumour cell line growth inhibition, 48 h
Test [1] deals with MDA-N.
The subject of test [2] is SN12C renal.
The subject of test [3] is SF-539 CNS.
The test system of test [4] is A498 renal.
The subject of test [5] is HCT-116 colon.
Test [6] relates to U251 CNS.
The subject of test [7] is NCI/ADR-RES ovarian.
Test [8] has as its system OVCAR-8 ovarian.
Test [9] has as its system COLO 205 colon.
The subject of test [10] is HOP-62 NSCLC.
In test [11] the test system is HS 578T breast.

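Method: 48-hour compound exposure of cells in 96-well plates, five concentrations, linear interpolation of endpoints. Definition used: TGI = concentration required for complete inhibition of growth.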

On to `COC(=O)C1=C(C(=O)OC)C2(C)CCC(=O)C1O2` (configuration not stated), for which the TGI in test [1], in test [2], in test [3], in [4], in test [5] and in [6] was over 10 µM throughout. Also, the TGI in [7], in test [8], in [9], in [10] and in test [11] was over 10 µM each time.

As for `CCOP(=O)(OCC)c1cc(-c2ccccc2)ccc1N`, the TGI in [1], in test [4], in test [5], in [6], in test [7] and in [8] was over 100 µM throughout. Moreover, the TGI in test [9], in [10] and in test [11] was over 100 µM each time.

`Cc1ccsc1C(=S)Nc1ccc(Cl)c(C(=O)OC(C(C)C)C(C)C)c1`: the TGI was over 100 µM in test [1]; over 100 µM in test [2]; over 100 µM in test [3]; over 100 µM in test [4]; 75.5 µM in test [5]; 97.1 µM in test [6]. Moreover, the TGI in [7] was over 100 µM; in test [8] it was over 100 µM; in test [9] it was 26.1 µM; in test [11] it was over 100 µM.

Take `COc1cc2c(cc1O)CC[n+]1cc3c(OC)c(OC)ccc3cc1-2`: the TGI in [1], in test [2], in test [3], in test [4], in test [5] and in [6] was over 100 µM each time. For the same compound, the TGI in [7], in test [8], in test [9] and in test [11] was over 100 µM throughout.

As for `Cc1ccc(C(=O)c2[nH]c(Nc3cc(C)ccn3)c(C(=S)Nc3ccccc3)c2N)cc1`, the TGI in [1], in test [2], in test [3], in [4], in test [5] and in test [6] was over 100 µM each time. Besides, the TGI in [7], in [8], in test [9], in test [10] and in [11] was over 100 µM each time.

For the compound `C(=N/Nc1ccc(-c2nc3ccccc3[nH]2)cc1)/c1c(-c2ccccc2)[nH]c2ccccc12`, the TGI was 0.185 µM in [1]; 55.2 µM in [3]; 16.8 µM in test [5]; 8.69 µM in test [6]; 17.4 µM in test [7]; over 100 µM in [8]. Further, the TGI stood at 30.9 µM in test [10] and 0.889 µM in test [11].

As to `COc1cc(-c2c3c(cc4c2OCO4)[C@@H](Nc2ccc4c(c2)Cc2cc(N[C@@H]5c6cc7c(cc6C(c6cc(OC)c(O)c(OC)c6)[C@H]6C(=O)OC[C@H]56)OCO7)ccc2-4)[C@H]2COC(=O)[C@@H]2C3)cc(OC)c1O` (some centres not stated), the TGI in test [1] was 34.3 µM; in test [2], over 100 µM; in [3], 19 µM; in [4], 94.2 µM; in test [5], 57 µM; in test [6], 89 µM. Also, the TGI in test [7] was 42.2 µM; in [8], over 100 µM; in test [9] it was 28.7 µM; in test [10], 57.5 µM; in [11], over 100 µM.

For the compound `CC12CCC(C/C1=N\NC(N)=O)C2(C)C` (configuration not stated), the TGI in test [1], in test [2], in test [5], in [6], in test [7] and in test [8] was over 100 µM in each case. Besides, the TGI in test [9], in test [10] and in test [11] was over 100 µM throughout.

Turning to `CN(C)c1nc(=NCc2ccccn2)ss1`, the TGI in test [1], in test [2], in test [3], in test [4], in test [5] and in test [6] was over 10 µM throughout. Also, the TGI in [7], in [8], in [9], in test [10] and in test [11] was over 10 µM throughout.

Take `CCOC(=O)c1c(NC(=S)Nc2ccc(C)cc2)sc2c1CCN(C)C2`: the TGI in test [1], in [2], in [3], in test [4], in [5] and in test [7] was over 100 µM throughout. Further, the TGI in test [8], in [9], in test [10] and in test [11] was over 100 µM throughout.

With `CCOC1NC(=O)c2ccccc21` (configuration not stated), the TGI in test [1], in test [2], in test [3], in test [5], in test [6] and in [7] was over 100 µM each time. The TGI in test [8], in [9], in [10] and in test [11] was over 100 µM each time.

Turning to `O=c1oc2ccccc2c2nc3ccccc3cc12`, the TGI in test [1] is over 100 µM; in test [2] it was over 100 µM; in test [3] it was 27.4 µM; in [4], 96.4 µM; in test [5], over 100 µM; in [6], 87.9 µM. For the same compound, the TGI was over 100 µM in [7], over 100 µM in test [8], over 100 µM in test [9] and 66.7 µM in test [11].

In the case of `C[C@@H]1C(=O)CC2(O)[C@@]13C[C@@H](OC(=O)[C@@H]3O)[C@@H](C)[C@@]21COC1=O` (some centres not stated), the TGI in test [1], in test [2], in [3], in test [5], in test [6] and in [7] was over 100 µM in each case. In addition, the TGI in test [8], in [9], in [10] and in test [11] was over 100 µM in each case.

With `CC/C=C\C/C=C\C/C=C\CCCCCCCC(=O)OC(COC(=O)CCCCCCCCCCCCCCCCC)COC1OC(CO)C(O)C(O)C1O` (configuration not stated), the TGI in test [1], in [2], in test [4], in test [5], in [6] and in [7] was over 25 µM each time. Further, the TGI is over 25 µM in [8], over 25 µM in test [9], over 25 µM in test [10] and 18.5 µM in test [11].

Take `COC1OC2COC(C)(C)OC2C2OC(C)(C)OC12` (configuration not stated): the TGI is over 100 µM in test [1]; 67.1 µM in [2]; over 100 µM in test [4]; over 100 µM in test [5]; over 100 µM in test [6]; over 100 µM in [7]. Besides, the TGI in [8] was over 100 µM; in test [9], over 100 µM; in test [10] it was 61.1 µM; in [11] it was 50 µM.

Consider `CC[P+](C#Cc1ccccc1)(c1ccccc1)c1ccccc1`, for which the TGI was determined as 3.44 µM in [1]; 5.41 µM in test [2]; 4.01 µM in test [3]; 21.2 µM in test [4]; 5.86 µM in test [5]; 4.48 µM in test [6]. In addition, the TGI in test [7] was over 100 µM; in test [8], 6.2 µM; in [9], 2.59 µM; in [10] it was 8.94 µM; in test [11] it was 7.77 µM.

In the case of `CCN(CC(=O)O)CC(=O)O`, the TGI in [1], in test [2], in test [3], in test [4], in test [5] and in test [6] was over 100 µM in each case. Besides, the TGI in test [7], in test [8], in test [9], in test [10] and in test [11] was over 100 µM in each case.

For the compound `CC(C)(C)OC(=O)c1ccc(NCc2cc(O)ccc2O)cc1`, the TGI in [1] was 16.3 µM; in test [2] it was 5.28 µM; in [3], 2.73 µM; in test [4] it was 19.5 µM; in test [5], 16.1 µM; in test [6] it was 9.32 µM. The TGI is 12.5 µM in test [7]; over 55.2 µM in [8]; 5.48 µM in test [9]; 41.3 µM in test [10]; 18.6 µM in test [11].

For the compound `Cc1cn(C2CC(OC(c3ccccc3)(c3ccccc3)c3ccccc3)C(COC(c3ccccc3)(c3ccccc3)c3ccccc3)O2)c(=O)[nH]c1=O` (configuration not stated), the TGI in test [1] is over 100 µM; in [2], over 100 µM; in test [3], over 100 µM; in [4] it was 73.8 µM; in test [5], over 100 µM; in test [7] it was over 100 µM. The TGI in [8], in [9], in test [10] and in [11] was over 100 µM throughout.

As to `COP(=O)(CC(=O)C1OC(OCc2ccccc2)C(OCc2ccccc2)C(OCc2ccccc2)C1OCc1ccccc1)OC` (configuration not stated), the TGI in [1] was 20.3 µM; in test [2], 11.2 µM; in test [3], 40.7 µM; in [5], over 100 µM; in test [6], over 100 µM; in test [7], 90.2 µM. For the same compound, the TGI is over 100 µM in test [8], 15 µM in test [9], over 100 µM in [10] and over 100 µM in test [11].

Regarding `O=C(CN=C(CN(c1ccccc1)c1ccccc1)Oc1c(Cl)cc(Cl)cc1Cl)n1cnc2ccccc21`, the TGI in test [1], in [2], in [3], in test [5], in test [6] and in test [7] was over 100 µM each time. The TGI in [8], in [9], in test [10] and in test [11] was over 100 µM in each case.

Take `C/C(=N\Nc1nc2ccccc2s1)c1cccnn1`: the TGI in test [1] is over 100 µM; in test [2], over 100 µM; in test [3], 17.7 µM; in test [5] it was 25.5 µM; in test [6], over 100 µM; in [7], 8.69 µM. Further, the TGI in test [8] was 12.2 µM; in [9], over 100 µM; in [10], 14.5 µM; in test [11], 44.1 µM.

Turning to `CCN(CC)C(=S)SS(=O)(=O)c1ccc(C)cc1`, the TGI in [1] was over 100 µM; in test [2], 49.7 µM; in [3], 39 µM; in [4], over 100 µM; in test [6], 69.6 µM; in test [7], over 100 µM. The TGI in test [8] is 40.2 µM; in test [9] it was 63.7 µM; in [10] it was 85.5 µM; in test [11], over 100 µM.

For `N/C(CSCCSC/C(N)=N/O)=N\O`, the TGI in test [1], in test [2], in test [3], in test [5], in [6] and in test [7] was over 100 µM throughout. The TGI in test [9], in test [10] and in test [11] was over 100 µM throughout.

For `CCOC(=O)Cc1nn2c(=O)cc(C)nc2s1`, the TGI in test [1], in test [2], in test [3], in test [5], in test [6] and in test [7] was over 100 µM throughout. The TGI in test [8], in test [9], in test [10] and in [11] was over 100 µM in each case.

As to `O=c1c(Cc2ccccc2)c(-c2ccccc2)[nH]n1C1=NCCN1`, the TGI is over 100 µM in test [1]; over 100 µM in test [3]; over 100 µM in [4]; 66.7 µM in [5]; over 100 µM in [6]; over 100 µM in test [7]. Also, the TGI in test [8], in test [9], in [10] and in test [11] was over 100 µM each time.

(Values after PubChem BioAssay (NCI).)
